Results on 28 compounds are retold here after patent publication US8835428B2, “Diacylglycerol acyltransferase inhibitors” (Piramal Enterprises Limited, priority 2008, dated 2014).

Each structure is given as a SMILES string.

One may read the inhibition as the percentage by which the read-out fell short of the control. Low values mean little suppression, high ones strong suppression.

One experiment concerns the target T1, hDGAT1 (Homo sapiens, UniProt O75907).
T1 construct: host or cells: Sf9 insect cells (baculovirus); microsomal preparation
T1 sequence (O75907 1-488): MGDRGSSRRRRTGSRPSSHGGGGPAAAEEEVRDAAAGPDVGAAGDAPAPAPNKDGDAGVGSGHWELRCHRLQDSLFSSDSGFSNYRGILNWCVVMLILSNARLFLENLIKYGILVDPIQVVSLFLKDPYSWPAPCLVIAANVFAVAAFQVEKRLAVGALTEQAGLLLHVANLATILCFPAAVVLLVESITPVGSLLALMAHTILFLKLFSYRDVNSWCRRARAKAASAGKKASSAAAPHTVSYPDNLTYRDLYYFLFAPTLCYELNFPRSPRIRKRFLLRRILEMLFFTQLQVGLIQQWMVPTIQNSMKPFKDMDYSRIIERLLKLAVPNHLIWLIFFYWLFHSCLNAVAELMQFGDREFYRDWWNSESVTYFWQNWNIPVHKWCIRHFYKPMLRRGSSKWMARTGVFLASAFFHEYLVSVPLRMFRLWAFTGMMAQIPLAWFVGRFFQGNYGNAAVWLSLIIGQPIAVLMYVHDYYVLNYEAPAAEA
The experiment is described as follows: In-vitro DGAT1 assay (hDGAT1 microsomes from Sf9 cells, 14C oleoyl CoA, triglyceride formation). Type of experiment: biochemical. The note with it: At 1 μM. An outline of the steps: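 Compounds tested in duplicate at 10, 5 and 1 μM for 10 min at 37 °C. Reaction: Sf9-expressed hDGAT1 microsomes (2.5–10 μg), [14C]oleoyl-CoA plus 409.5–1638 μM dioleoylglycerol, pH 7.4 Tris-HCl with fatty-acid-free BSA. Radiolabelled triglyceride extracted into heptane and scintillation-counted.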
`O=C(Nc1ccc(-c2cc(C(=O)N3CCC[C@@H]3C(=O)O)on2)cc1)Nc1ccccc1F` [Example 260, (R)-1-(3-(4-(3-(2-Fluorophenyl)ureido)phenyl)isoxazole-5-carbonyl) pyrrolidine-2-carboxylic acid] had an inhibition at 1 µM of 50 to 75%. For `CC(C)[C@H](NC(=O)c1csc(-c2ccc(NC(=O)Nc3ccc4c(c3)CCC4)cc2)n1)C(=O)O` [Example 361, (S)-2-(2-(4-(3-(2,3-dihydro-1H-inden-5-yl)ureido)phenyl)thiazole-4-carboxamido)-3-methylbutanoic acid], the inhibition at 1 µM lay within 0 to 50%. Consider `COC(=O)[C@H](NC(=O)c1cc(-c2ccc(NS(=O)(=O)c3ccc(C(F)(F)F)cc3)cc2)no1)C(C)C` [Example 318, (R)-methyl 3-methyl-2-(3-(4-(4-(trifluoromethyl)phenylsulfonamido)phenyl)isoxazole-5-carboxamido)butanoate], for which the inhibition at 1 µM lay within 0 to 50%. Consider `Cc1cc(OC(F)(F)F)ccc1NC(=O)Nc1ccc(-c2cc(C(=O)NC(C(=O)O)C(C)C)on2)cc1` (stereo not shown) [Example 295, 3-methyl-2-(3-(4-(3-(2-methyl-4-(trifluoromethoxy)phenyl)ureido)phenyl)isoxazole-5-carboxamido)butanoic acid], for which the inhibition at 1 µM fell in the range of 75 to 100%. The same measure, in the same setting: in the case of `CC(C)C(NC(=O)c1cc(-c2ccc(NC(=O)Nc3ccc(C4CCCCC4)cc3)cc2)no1)C(=O)O` (stereo not shown) [Example 293, 2-(3-(4-(3-(4-cyclohexylphenyl)ureido)phenyl)isoxazole-5-carboxamido)-3-methylbutanoic acid] it was 75 to 100%. Still for that read-out and setting: in the case of `CC(C)[C@H](NC(=O)c1cc(-c2ccc(NC(=O)Nc3ccccc3C(F)(F)F)cc2)no1)C(=O)O` [Example 164, (S)-3-methyl-2-(3-(4-(3-(2-(trifluoromethyl)phenyl)ureido)phenyl)isoxazole-5-carboxamido)butanoic acid] it was 75 to 100%; in that of `CC(C)[C@H](NC(=O)c1cc(-c2ccc(NC(=O)Nc3ccc(Cl)nc3)cc2)no1)C(=O)O` [Example 207, (S)-2-(3-(4-(3-(6-chloropyridin-3-yl)ureido)phenyl)isoxazole-5-carboxamido)-3-methylbutanoic acid], 0 to 50%; in that of `CCCCc1ccc(NC(=O)Nc2ccc(-c3cc(C(=O)NC(C(=O)O)C(C)C)on3)cc2)cc1` (stereo not shown) [Example 158, 2-(3-(4-(3-(4-butylphenyl)ureido)phenyl)isoxazole-5-carboxamido)-3-methylbutanoic acid], 75 to 100%.

The same experiment, now with this note: At 5 μM.
`CC(C)C(NC(=O)c1cc(-c2ccc(NC(=O)Nc3ccc(-c4cc(C(=O)NC(C(=O)O)C(C)C)on4)cc3)cc2)no1)C(=O)O` (stereo not shown) [Example 282, 2-({3-[4-(3-{4-[5-(1-Carboxy-2-methyl-propylcarbamoyl)-isoxazol-3-yl]-phenyl}-ureido)-phenyl]-isoxazol-5-carbonyl}-amino)-3-methyl-butyric acid] yielded an inhibition at 5 µM of 0 to 50%. Compound `Cc1ccccc1S(=O)(=O)NC(=O)Nc1ccc(-c2cc(C(=O)NC(C(=O)O)C(C)C)on2)cc1` (stereo not shown) [Example 264, 3-Methyl-2-(3-(4-(3-(o-tolylsulfonyl)ureido)phenyl)isoxazole-5-carboxamido)butanoic acid] showed an inhibition at 5 µM of 0 to 50%.

In turn, `CC(C)C(NC(=O)c1cc(-c2ccc(NC(=O)Nc3ccc(C(F)(F)F)cc3)cc2)no1)C(=O)O` (stereo not shown) [Example 276, 3-Methyl-2-(3-(4-(3-(4-(trifluoromethyl)phenyl)ureido)phenyl)isoxazole-5-carboxamido)butanoic acid] came in with an inhibition at 5 µM of 75 to 100%. For `CC(C)C(NC(=O)c1cc(-c2ccc(NC(=O)Nc3cccc(C(F)(F)F)c3)cc2)no1)C(=O)O` (stereo not shown) [Example 278, 3-Methyl-2-(3-(4-(3-(3-(trifluoromethyl)phenyl)ureido)phenyl)isoxazole-5-carboxamido)butanoic acid], the inhibition at 5 µM lay within 75 to 100%. Regarding `COC(=O)[C@@H](NC(=O)c1cc(-c2ccc(NC(=S)Nc3ccc(C)cc3)cc2)no1)C(C)C` [Example 271, (S)-Methyl 3-methyl-2-(3-(4-(3-p-tolylthioureido)phenyl)isoxazole-5-carboxamido)butanoate], the inhibition at 5 µM was 0 to 50%.

The same experiment, now with this note: At 10 μM.
As to `CC(C)C[C@H](NC(=O)c1cc(-c2ccc(Nc3nc4ccc(F)cc4s3)cc2)no1)C(=O)O` [Example 47, (S)-2-({3-[4-(6-fluoro-benzothiazol-2-ylamino)-phenyl]-isoxazole-5-carbonyl}-amino)-4-methyl-pentanoic acid], the inhibition at 10 µM was in the range of 75 to 100%. As to `COC(=O)[C@@H](NC(=O)c1cc(-c2ccc(Nc3nc4ccc(F)cc4s3)cc2)no1)C(C)C` [Example 5, (S)-2-({3-[4-(6-Fluoro-benzothiazol-2-ylamino)-phenyl]-isoxazole-5-carbonyl}-amino)-3-methyl-butyric acid methyl ester], the inhibition at 10 µM lay within 50 to 75%. Same read-out and setting: the figure for `COC(=O)[C@@H](NC(=O)c1c(-c2ccc(Nc3nc4ccc(F)cc4s3)cc2)noc1-c1ccccc1)C(C)C` [Example 68, (S)-2-({3-[4-(6-Fluoro-benzothiazol-2-ylamino)-phenyl]-5-phenyl-isoxazole-4-carbonyl}-amino)-3-methyl-butyric acid methyl ester] is 0 to 50%; for `CC(C)[C@H](NC(=O)c1cc(-c2ccc(NC(=O)Nc3ccccc3)cc2)no1)C(=O)O` [Example 77, (S)-3-Methyl-2-({3-[4-(3-phenyl-ureido)-phenyl]-isoxazole-5-carbonyl}-amino)-butyric acid] it is 75 to 100%. Consider `O=C(O)[C@@H]1CCCN1C(=O)c1cc(-c2cccc(Nc3nc4ccc(F)cc4s3)c2)no1` [Example 35, (S)-1-{3-[3-(6-Fluoro-benzothiazol-2-ylamino)-phenyl]-isoxazole-5-carbonyl}-pyrrolidine-2-carboxylic acid], for which the inhibition at 10 µM was 0 to 50%. `COC(=O)[C@@H](NC(=O)c1cc(-c2ccc(Nc3nc4ccc(F)cc4s3)cc2)no1)c1ccccc1` [Example 52, (S)-({3-[4-(6-Fluoro-benzothiazol-2-ylamino)-phenyl]-isoxazole-5-carbonyl}-amino)-phenyl-acetic acid methyl ester] registered an inhibition at 10 µM of 0 to 50%. For `O=C(N[C@@H](CO)C(=O)O)c1cc(-c2ccc(Nc3nc4ccc(F)cc4s3)cc2)no1` [Example 10, (S)-2-({3-[4-(6-Fluoro-benzothiazol-2-ylamino)-phenyl]-isoxazole-5-carbonyl}-amino)-3-hydroxy-propionic acid], the inhibition at 10 µM lay within 50 to 75%.

For the compound `COC(=O)C(NC(=O)c1cc(-c2ccc(NC(=O)Nc3ccccc3F)c(F)c2)no1)C(C)C` (stereo not shown) [Example 147, Methyl 2-(3-(3-fluoro-4-(3-(2-fluorophenyl)ureido)phenyl)isoxazole-5-carboxamido)-3-methylbutanoate], the inhibition at 10 µM was in the range of 50 to 75%. Still for that read-out and setting: the figure for `COC(=O)[C@H](NC(=O)c1cc(-c2ccc(Nc3nc4ccc(F)cc4s3)cc2)no1)C(C)C` [Example 38, (R)-2-({3-[4-(6-Fluoro-benzothiazol-2-ylamino)-phenyl]-isoxazole-5-carbonyl}-amino)-3-methyl-butyric acid methyl ester] is 50 to 75%; for `CC(C)(NC(=O)c1cc(-c2ccc(NC(=O)Nc3ccccc3)cc2)no1)C(=O)O` [Example 122, 2-methyl-2-(3-(4-(3-phenylureido)phenyl)isoxazole-5-carboxamido) propanoic acid] it is 75 to 100%; for `CC(C)[C@H](NC(=NO)c1cc(-c2cccc(Nc3nc4ccc(F)cc4s3)c2)no1)C(=O)O` [Example 27, (S)-2-({3-[3-(6-Fluoro-benzothiazol-2-ylamino)-phenyl]-N-hydroxy-isoxazole-5-carboximidoyl}-amino)-3-methyl-butyric acid] it is 0 to 50%. Turning to `COC(=O)[C@H](CC(C)C)NC(=O)c1onc(-c2ccc(Nc3nc4ccc(F)cc4s3)cc2)c1-c1ccccc1` [Example 94, (S)-2-({3-[4-(6-Fluoro-benzothiazol-2-ylamino)-phenyl]-4-phenyl-isoxazole-5-carbonyl}-amino)-4-methyl-pentanoic acid methyl ester], the inhibition at 10 µM is 0 to 50%. Regarding `O=C(O)C1(NC(=NO)c2cc(-c3ccc(Nc4nc5ccc(F)cc5s4)cc3)no2)CCCC1` [Example 66, 1-({3-[4-(6-Fluoro-benzothiazol-2-ylamino)-phenyl]-N-hydroxy-isoxazole-5-carboximidoyl}-amino)-cyclopentanecarboxylic acid], the inhibition at 10 µM was in the range of 0 to 50%. `COC[C@H](NC(=S)c1cc(-c2cccc(Nc3nc4ccc(F)cc4s3)c2)no1)C(=O)O` [Example 31, (S)-2-({3-[3-(6-Fluoro-benzothiazol-2-ylamino)-phenyl]-isoxazole-5-carbothioyl}-amino)-3-methoxy-propionic acid] returned an inhibition at 10 µM of 0 to 50%. Same read-out and setting: the figure for `O=C(O)[C@@H]1CCCN1C(=O)c1cc(-c2ccc(Nc3nc4ccc(F)cc4s3)cc2)no1` [Example 19, (S)-1-{3-[4-(6-Fluoro-benzothiazol-2-ylamino)-phenyl]-isoxazole-5-carbonyl}-pyrrolidine-2-carboxylic acid] is 50 to 75%.
